Measurements: US7109236B2, “Analogs of green tea polyphenols as chemotherapeutic and chemopreventive agents” (SRI International, priority 2002, dated 2006)

Columns and labels:
[1] = test system: human lung tumor cells (A427); assay: Anchorage-independent growth inhibition assay (colony formation in soft agar); type: cell-based; settings: for Expected Colonies: A427 cells, (cells plated)(Surviving Fraction)(Frequency)
Experimental: (§1) An anchorage-independent growth inhibition assay was performed as described in Korytynski, et al. (1996) “The development of an anchorage-independence assay using human lung tumor cells to screen potential chemopreventive agents,” Anticancer Res. 16, 1091–1094; and Sharma, et al. (1997) “The anchorage-independent assay as a screening tool to identify potential chemopreventive agents,” Methods Cell Sci. 19, 9–12. The assay measures the inhibition of colony formation of human lung tumor cells (A427) cells grown in soft agar. In this assay, A427 cells were grown in the presence of the test agent, SR 13196, EGCG or 13-cis-RA Control samples were tested using an equivalent volume of DMSO alone. A concurrent assay for cell survival was also performed.
(§2) Thus, SR 13196 inhibits colony formation of A427 cells in vitro, as well as their survival, and in a dose-dependent manner.

MDA-MB-231 (ER−) = assay: MTT growth inhibition assay, MDA-MB-231 breast cancer cells; type: cell-based
Experimental: (§3) Compounds of the invention were tested for their ability to inhibit growth in two breast cancer cell lines, MCF-7 (ER+) and MDA-MB-231 (ER−).
(§4) The growth inhibition assays were conducted using routine methods. Briefly, the cells were seeded in 24-well plates at a density of 2000 cells per well in 200 μL of […] growth medium. To each well was added 10 μL of DMSO containing the dissolved test compound; final DMSO concentration in each well was not more than 0.5%. Each test compound was assayed at concentrations of 0.4, 2, 10, and 50 μM. The plates were incubated for eight days, with the media and test solutions replaced every third day. On Day 8, the viable cells were measured by the MTT assay, as described in Mosmann et al. (1983), “Rapid Colorimetric Assay for Cellular Growth and Survival: Application to Proliferation and Cytotoxicity,” J. Immunol. Method. 65:55–63. The optical density at 575 nm of each test well was measured and compared to that for control wells, and the data used to calculate the percentage of growth inhibition at different concentrations. The IC50 value (the concentration of growth inhibitor that results in 50% growth inhibition of the cells in culture relative to control cells not exposed to any growth inhibitor) was determined by plotting dose-response curves.
(§5) The calculated IC50 values are set forth in Table 1, with the results representing the average of at least two experiments conducted for each compound at each of the four concentrations.
(§6) The foregoing procedures were repeated with additional compounds of the invention to evaluate the their ability to inhibit growth in MCF-7 (ER+) and MDA-MB-231 (ER−).

in vitro = settings: human, Caco-2, pH 7.4
Text: (§7) The Caco-2 human colon adenocarcinoma cell line has become accepted as a predictive model for human intestinal absorption. […] The transport is reported as a permeability coefficient, P(app), which is compared to those of the known standards.

MCF-7 (ER+) = assay: MTT growth inhibition assay, MCF-7 breast cancer cells; type: cell-based
Experimental: as §3, §4, §5, §6

MCF-7 cells = assay: Cell cycle studies in MCF-7 cells; type: cell-based; settings: 10 μM
Text: To establish that the analogs of EGCG also act via the same mechanisms as EGCG itself, the active analog SR 13196 in cell cycle studies in MCF-7 cells was examined.

A427 cells = assay: Concurrent assay for cell survival; type: cell-based, human; settings: highest concentration tested (25 μM)
Experimental: as §1, §2

[2] = standards of known oral bioavailability; cited from earlier work
[3] = test system: Caco-2 human colon adenocarcinoma cell line; assay: Caco-2 intestinal permeability model; settings: for Papp: Caco-2, pH 7.4
Text: as §7

[4] = Homo sapiens, MDA-MB-231, 192 h, Table 1, 8 days
[5] = Homo sapiens, MCF7, 192 h, Table 1, 8 days
[6] = Table 2 (repeat run with additional compounds), 8 days
[7] = Homo sapiens, MDA-MB-231, 192 h, Table 2 (repeat run with additional compounds), 8 days
[8] = Homo sapiens, MCF7, 192 h, Table 2 (repeat run with additional compounds), 8 days

With `COc1cc([C@H]2Oc3cc(O)cc(O)c3C[C@H]2OC(=O)c2cc(C)c(O)c(C)c2)cc(OC)c1OC` (relative stereo) [SR 13196] the “inhibition of colony formation, in words” value ([1]; A427 cells in soft agar) was “inhibited colony formation to a much greater extent than either EGCG or 13-cis-RA”, the “Expected Colonies” value ([1]; 1.56 μM) was 277 and the “Expected Colonies” value ([1]; 3.12 μM) was 160. The “Expected Colonies” value ([1]; 6.25 μM) was 67, the “Expected Colonies” value ([1]; 12.5 μM) was 52 and the inhibition at 1.56 µM ([1]; Homo sapiens, A-427, A427 cells in soft agar, 1.56 μM) was 4%. It also gave an inhibition at 3.12 µM ([1]; Homo sapiens, A-427, A427 cells in soft agar, 3.12 μM) of 32%, an inhibition at 6.25 µM ([1]; Homo sapiens, A-427, A427 cells in soft agar, 6.25 μM) of 43% and an inhibition at 12.5 µM ([1]; Homo sapiens, A-427, A427 cells in soft agar, 12.5 μM) of 46%. The inhibition at 25 µM ([1]; Homo sapiens, A-427, A427 cells in soft agar, 25 μM) was 81%, the IC50 (MDA-MB-231 (ER−); [4]) was 19.6 µM and the Papp at 100 μM (in vitro) was 68.2 ± 8.3 nm/s. For the same compound, the IC50 (MCF-7 (ER+); [5]) was 8.39 µM and the “effect on cell cycle” value (MCF-7 cells) was “arrests the cell cycle in G1”.
With `CC1=C(/C=C/C(C)=C/C=C/C(C)=C\C(=O)O)C(C)(C)CCC1` [Compound 13-cis-RA, reference compound] the “Expected Colonies” value ([1]; 1.56 μM) was 332, the “Expected Colonies” value ([1]; 3.12 μM) was 320 and the “Expected Colonies” value ([1]; 6.25 μM) was 289. For the same compound, the “Expected Colonies” value ([1]; 12.5 μM) was 265, the “Expected Colonies” value ([1]; 25 μM) was 254 and the surviving cells (A427 cells) was 68%.
In the case of `CN1C(=O)CN=C(c2ccccc2)c2cc(Cl)ccc21` [Diazepam, diazepam], the “% Absorbed (literature value)” value [2] is given as 100%.
For `O=C(O[C@@H]1Cc2c(O)cc(O)cc2O[C@@H]1c1cc(O)c(O)c(O)c1)c1cc(O)c(O)c(O)c1` [EGCG, (−)-epigallocatechin-3-gallate, reference compound], the “Expected Colonies” value ([1]; 1.56 μM) was 386, the “Expected Colonies” value ([1]; 3.12 μM) was 382 and the “Expected Colonies” value ([1]; 6.25 μM) was 378. The “Expected Colonies” value ([1]; 12.5 μM) was 331, the “Expected Colonies” value ([1]; 25 μM) was 191 and the IC50 (MDA-MB-231 (ER−); [6]) was 36.9 µM. For the same compound, the “permeability coefficient (Papp), in words” value ([3]; Caco-2 model, summary of the experiments) was “low permeability coefficient”, the IC50 (MCF-7 (ER+); [6]) was 37.1 µM and the “effect on cell cycle” value (MCF-7 cells) was “arrests the cell cycle in G1”.
For `Nc1nc(O)c2ncn(COC(CO)CO)c2n1` [Ganciclovir, ganciclovir], the “% Absorbed (literature value)” value [2] is listed as 3%.
For `COc1cc(C2Oc3cc(O)cc(O)c3C[C@H]2OC(=O)c2cc(O)c(O)c(O)c2)cc(OC)c1OC` (stereo partly drawn) [SR 13194, trans-5,7-DIHYDROXY-2-(3,4,5-TRIMETHOXY-PHENYL)-3,4-DIHYDRO-2H-CHROMAN-3-YL, 3,4,5-TRIHYDROXY-BENZOIC ACID ESTER], the IC50 (MDA-MB-231 (ER−); [4]) was over 100 µM and the IC50 (MCF-7 (ER+); [5]) was over 100 µM.
`COc1cc([C@H]2Oc3cc(O)cc(O)c3C[C@H]2OC(=O)c2cc(O)c(O)c(O)c2)cc(OC)c1OC` [SR 13195, cis-5,7-DIHYDROXY-2-(3,4,5-TRIMETHOXY-PHENYL)-3,4-DIHYDRO-2H-CHROMAN-3-YL, 3,4,5-TRIHYDROXY-BENZOIC ACID ESTER] gave an IC50 (MDA-MB-231 (ER−); [4]) of over 100 µM and an IC50 (MCF-7 (ER+); [5]) of over 100 µM.
`COc1cc(OC)c2c(c1)OC(c1cc(O)c(O)c(O)c1)[C@H](OC(=O)c1cc(O)c(O)c(O)c1)C2` (stereo partly drawn) [SR 13198, trans-5,7-DIMETHOXY-2-(3,4,5-TRIHYDROXY-PHENYL)-3,4-DIHYDRO-2H-CHROMAN-3-YL, 3,4,5-TRIHYDROXY-BENZOIC ACID ESTER] showed an IC50 (MDA-MB-231 (ER−); [7]) of 35.9 µM and an IC50 (MCF-7 (ER+); [8]) of 42.1 µM.
`COc1cc(OC)c2c(c1)O[C@H](c1cc(O)c(O)c(O)c1)[C@H](OC(=O)c1cc(C)c(O)c(C)c1)C2` [SR 13200] gave an IC50 (MDA-MB-231 (ER−); [7]) of 22.6 µM and an IC50 (MCF-7 (ER+); [8]) of 22.9 µM.
Work on `Cc1cc(C)c2c(c1)OC(c1cc(O)c(O)c(O)c1)[C@H](OC(=O)c1cc(O)c(O)c(O)c1)C2` (stereo partly drawn) [SR 13911] yielded an IC50 (MDA-MB-231 (ER−); [7]) of 25.7 µM, a Papp at 100 μM (in vitro) of 14.2 ± 16 nm/s and an IC50 (MCF-7 (ER+); [8]) of 23.6 µM.
With `Cc1cc(C)c2c(c1)O[C@H](c1cc(O)c(O)c(O)c1)[C@H](OC(=O)c1cc(O)c(O)c(O)c1)C2` [SR 13912] the IC50 (MDA-MB-231 (ER−); [7]) was 53.7 µM and the IC50 (MCF-7 (ER+); [8]) was 21.8 µM.
With `Cc1cc(C)c2c(c1)O[C@H](c1cc(O)c(O)c(O)c1)[C@H](OC(=O)c1cc(C)c(O)c(C)c1)C2` [SR 13913] the Papp at 100 μM (in vitro) was under 0.6 nm/s and the IC50 (MCF-7 (ER+); [8]) was 17.2 µM.
In the case of `COc1cc([C@H]2Oc3cc(O)cc(O)c3C[C@H]2OC(=O)c2cc(O)c(O)c(O)c2)cc(OC)c1O` [SR 13915], the IC50 (MDA-MB-231 (ER−); [6]) is reported as over 100 µM, the Papp [3] is reported as 51.7 ± 4.9 nm/s and the IC50 (MCF-7 (ER+); [6]) is reported as over 100 µM.
Compound `Cc1cc(C(=O)O[C@@H]2Cc3c(O)cc(O)cc3O[C@@H]2c2cc(C)c(O)c(C)c2)cc(C)c1O` [SR 13916] has an IC50 (MDA-MB-231 (ER−); [6]) of 10.2 µM and an IC50 (MCF-7 (ER+); [6]) of 6.61 µM.
Compound `Cc1cc([C@H]2Oc3cc(O)cc(O)c3CC2OC(=O)c2cc(O)c(O)c(O)c2)cc(C)c1O` (stereo partly drawn) [SR 13917] has an IC50 (MDA-MB-231 (ER−); [6]) of 2.98 µM and an IC50 (MCF-7 (ER+); [6]) of 6.12 µM.
Compound `Cc1cc([C@H]2Oc3cc(O)cc(O)c3C[C@H]2OC(=O)c2cc(O)c(O)c(O)c2)cc(C)c1O` [SR 13918] has an IC50 (MDA-MB-231 (ER−); [6]) of 46.8 µM and an IC50 (MCF-7 (ER+); [6]) of over 100 µM.
`COc1cc(C(=O)O[C@@H]2Cc3c(C)cc(C)cc3O[C@@H]2c2cc(O)c(O)c(O)c2)cc(OC)c1OC` [SR 13919] showed an IC50 (MDA-MB-231 (ER−); [6]) of 7.76 µM, a Papp [3] of under 0.6 nm/s and an IC50 (MCF-7 (ER+); [6]) of 8.35 µM.
With `COc1cc([C@H]2Oc3cc(O)cc(O)c3C[C@H]2OC(=O)c2cc(C)c(O)c(C)c2)cc(OC)c1O` [SR 13920] the IC50 (MDA-MB-231 (ER−); [6]) was 9.97 µM and the IC50 (MCF-7 (ER+); [6]) was 33.1 µM.
